Positions of bridges follow the written chain, without caps; N, C: chain ends. Non-standard residues stand in square brackets, D forms with d. Residues, ends and D or L forms follow the SMILES beside them. *: point of attachment. Asp(3S-OH) = N[C@H](C(=O)O)[C@H](O)C(=O)O; Thr(4-Cl) = N[C@H](C(=O)O)[C@H](O)CCl; X1 = CCCCCCCCC[C@@H](O)CC(=O)*; dDab = NCC[C@@H](N)C(=O)O; Dab = NCC[C@H](N)C(=O)O; Dhb = C/C=C(\N)C(=O)O
Assays:
Assay type in all cases: cell-based, Saccharomyces cerevisae
[1] = system: yIM126-pIM580-CYP27A1 yeast; assay: Test for restoration of growth on a YPG agar containing syringomycin E inoculated with a cholesterol-producing strain; conditions: syringomycin E 250 ng/ml, 48 h to 72 h at 30° C.
Description: The yIM126 yeasts containing the expression plasmids for DHCR24 with or without P450 are cultured in YNB medium, 2% glucose, adenine at 100 μg/ml for 48 h at 30° C. and then in Käppeli medium for 24 h at 30° C. as described above.
(§1) The yeast suspensions are diluted to an optical density at 600 nm of 0.005 unit ( 1/200) in YNB medium in order to inoculate a YPG agar containing syringomycin E at a dose that is toxic for the strain, i.e. 160 ng/ml for yIM126 containing the pIM582 plasmid, or 250 ng/ml for the yIM126 strain containing the pIM580 plasmid.
The inoculation of the agar medium is carried out by flooding its surface and immediately suctioning off the excess liquid. Products of interest are deposited on the agar surface thus inoculated, and then dried. […] Similarly, this method makes it possible to identify activators of enzymes, such as cytochromes P450, for instance CYP27A1, which catabolize cholesterol.
FIG. 7: Test for restoration of growth on a YPG agar containing syringomycin E inoculated with a cholesterol-producing strain.
The surface of a YPG agar medium containing syringomycin E at 250 ng/ml is inoculated with a covering of yIM126-pIM580-CYP27A1 yeast suspension. […]

[2] = system: yIM126 containing the pIM582 plasmid (without P450); assay: Growth of yeasts on YPG agar containing syringomycin E
Description: (§2) This culture medium is a rich medium of YPG agar type (YPG complete medium: yeast extract (Difco) 10 g/L, bactopeptone (Difco) 20 g/L, glucose (Merck) 20 g/L) supplemented with syringomycin E toxin from Pseudomonas syringae B-301D (Sigma #S6946) from 150 to 250 ng/ml.
(§3) The yIM126 yeast strains containing an expression vector for DHCR24 and cytochrome P450 such as pIM580, described previously, are cultured for 48 h with shaking at 30° C. in a YNB medium (yeast nitrogen base w/o amino acids (Difco) 6.7 g/L, glucose (Merck) 20 g/L) supplemented with 2% glucose and adenine at 100 μg/ml.
(§4) The culture reaches an optical density at 600 nm of about 7 units. The cell pellet is harvested by centrifugation and transferred into an identical volume of Käppeli medium containing […], 2% glucose and 100 μg/ml of adenine, and shaken at 30° C. for 24 h, reaching an optical density at 600 nm of about 40 units.
(§5) The cultures are diluted to 1 unit of optical density at 600 nm and then to 1/50 and then 25-fold dilutions in order to perform a drop test on YPG agars containing syringomycin E according to the methods known to those skilled in the art.
(§6) The toxicity of this YPG medium containing syringomycin E depends on the amount of cholesterol available in the yeast, observed by GC/FID or GC/MS.
as §1
(§7) FIG. 6: Test for growth of various strains producing and/or catabolizing cholesterol on a YPG agar containing syringomycin E (SRG): Yeast culture dilutions deposited on a YPG agar without syringomycin E(6A) or with syringomycin E at 170 ng/ml (6B); Dilution OD at 600 nm from top to bottom: 0.02/0.0008/[…].

[3] = system: yIM126 strain containing the pIM580 plasmid (with CYP27A1); assay: as above
Description: as §2, §3, §4, §5, §6, §1, §7

[4] = 2 μl of product at 1 mM deposited
[5] = 2 μl of product at 0.1 mg/ml deposited
[6] = YPG agar, inoculated at OD 600 nm 0.005
[7] = syringomycin E at 170 ng/ml, 48 h to 72 h at 30° C.

CCN(C/C=C\c1ccc(C2CCCCC2)c(Cl)c1)C1CCCCC1 [SR31747]
restoration of growth (yeast growth halos around the deposits) on medium which is initially toxic [1, 4]: verified

CC(C)CCC[C@@H](C)[C@H]1CC[C@H]2[C@@H]3CC=C4C[C@@H](O)CC[C@]4(C)[C@H]3CC[C@]12C [cholesterol]
area of protection with respect to the toxicity of the syringomycin E contained in the agar [1, 5]: induces an area of protection

C/C=C1\NC(=O)[C@H](Cc2ccccc2)NC(=O)[C@H](CCCN=C(N)N)NC(=O)[C@@H](CCN)NC(=O)[C@H](CCN)NC(=O)[C@@H](CO)NC(=O)[C@@H](NC(=O)C[C@H](O)CCCCCCCCC)COC(=O)[C@H]([C@H](O)CCl)NC(=O)[C@H]([C@H](O)C(=O)O)NC1=O [syringomycin E] (X1-S[dS][Dab][dDab]RF[Dhb][Asp(3S-OH)][Thr(4-Cl)]; ester 1-C)
dose that is toxic for the strain [2, 6]: 160 ng/mL | growth of the yeasts in drop test [2, 7]: not capable of growing | dose that is toxic for the strain [3, 6]: 250 ng/mL | growth of the yeasts in drop test [3, 7]: capable of growing

Clc1ccccc1CNCC1CCC(CNCc2ccccc2Cl)CC1 (stereo not drawn) [AY9944]
restoration of growth (yeast growth halos around the deposits) on medium which is initially toxic [1, 4]: verified

C[C@@H](CO)CCC[C@@H](C)[C@H]1CC[C@H]2[C@@H]3CC=C4C[C@@H](O)CC[C@]4(C)[C@H]3CC[C@]12C [27OH-cholesterol]
area of protection with respect to the toxicity of the syringomycin E contained in the agar [1, 5]: induces an area of protection

CCC(C)(C)c1ccc(CC(C)CN2C[C@@H](C)O[C@@H](C)C2)cc1 (stereo partly drawn) [amorolfine]
restoration of growth (yeast growth halos around the deposits) on medium which is initially toxic [1, 5]: verified

Reference: patent US20130090471A1, “METHOD FOR DETECTING COMPOUNDS THAT MODULATE THE CHOLESTEROL METABOLISM” (priority 2010, published 2013)
